Data on 1 compound can be found in patent US11135176B1 (Florida A&M University, priority 2016, dated 2021).

Data set [1] can be described thus: Drug solubility in 4% of surfactant, analyzed by HPLC. The data set is classed as physicochemical.
Data set [2] in a line: Solubility of IBU in lipids (visual). Details: key to Solubility of IBU in Geleol mono and diglyceride NF / Solubility of IBU in Glyceryl monostearate / Solubility of IBU in Stearic acid / Solubility of IBU in COMPRITOL ® 888ATO / Solubility of IBU in PRECIROL ® ATO5: +: Clear or transparent mixture implies the drug is soluble in lipid. The note with it: for Solubility of IBU in COMPRITOL ® 888ATO / Solubility of IBU in Geleol mono and diglyceride NF / Solubility of IBU in Glyceryl monostearate / Solubility of IBU in PRECIROL ® ATO5 / Solubility of IBU in Stearic acid: 90° C. The format is physicochemical.
Description: The selection of lipid was done by evaluating the solubility of IBU in different lipids such as Compritol® 888ATO (glyceryl behenate), Precirol® ATOS (glyceryl palmitosterate), geleol mono and diglyceride NF, glyceryl monostearate and stearic acid. Briefly, 10 mg of IBU was weighed and added into Eppendorf tube containing 100 mg of lipid. The mixture was then heated for 10 minutes in a water bath at 90° C. to facilitate solubilization. […] Finally, total of 40 mg of drug was added in 100 mg of lipid and checked for the precipitation.

Setting [3] is: 10 mg of IBU/100 mg of solid lipid.
The mark [4] stands for this setting: 20 mg of IBU/100 mg of solid lipid.
The mark [5] stands for this setting: 30 mg of IBU/100 mg of solid lipid.
Where [6] appears, read: 40 mg of IBU/100 mg of solid lipid.

For `CC(C)Cc1ccc(C(C)C(=O)O)cc1` (stereo not shown) [IBU, ibuprofen], the “drug soluble in the surfactant” value in data set [1] was “less than 5%”. In data set [2] (setting [3]), the “Solubility of IBU in COMPRITOL ® 888ATO” value is “+”; the “Solubility of IBU in Geleol mono and diglyceride NF” value was “+”; the “Solubility of IBU in Glyceryl monostearate” value is listed as “+”; the “Solubility of IBU in PRECIROL ® ATO5” value is recorded as “+”. Also, the “Solubility of IBU in Stearic acid” value in data set [2] (setting [3]) is reported as “+”. In data set [2] (setting [4]), the “Solubility of IBU in COMPRITOL ® 888ATO” value is reported as “+”; the “Solubility of IBU in Geleol mono and diglyceride NF” value is “+”; the “Solubility of IBU in Glyceryl monostearate” value is “+”; the “Solubility of IBU in PRECIROL ® ATO5” value is “+”. Further, the “Solubility of IBU in Stearic acid” value in data set [2] (setting [4]) was “+”. In addition, in data set [2] (setting [5]), the “Solubility of IBU in COMPRITOL ® 888ATO” value is listed as “+”; the “Solubility of IBU in Geleol mono and diglyceride NF” value is on record as “+”; the “Solubility of IBU in Glyceryl monostearate” value was “+”; the “Solubility of IBU in PRECIROL ® ATO5” value is “+”. Moreover, in data set [2] (setting [5]), the “Solubility of IBU in Stearic acid” value was “+”. In data set [2] (setting [6]), the “Solubility of IBU in COMPRITOL ® 888ATO” value was “+”; the “Solubility of IBU in Geleol mono and diglyceride NF” value was “+”; the “Solubility of IBU in Glyceryl monostearate” value is “+”; the “Solubility of IBU in PRECIROL ® ATO5” value is recorded as “+”. Also, in data set [2] (setting [6]), the “Solubility of IBU in Stearic acid” value is “+”. Besides, in data set [2] (40 of IBU, heated at 90 C, Compritol 888 ATO, Precirol ATO 5, geleol mono and diglyceride NF, glyceryl monostearate and stearic acid), the “solubility of IBU in the lipid” value was “completely soluble”.
